Entries after “also recorded” stand apart in the source; their conditions may differ.
Columns and labels:
AT1 receptor = target: T1, AT1 receptor (Rattus norvegicus, UniProt P25095); assay: Rat liver membrane AT1 receptor binding assay ([125I]-Ang II displacement); conditions: displacement of [125I]-Ang II, rat liver membranes; means ± SE, triplicate; read-out: Ki (nM) AT1R
T1 construct: Rat liver membranes were prepared according to the method of Dudley et al; from tissue; host or cells: rat liver membranes
T1 sequence (P25095 whole entry): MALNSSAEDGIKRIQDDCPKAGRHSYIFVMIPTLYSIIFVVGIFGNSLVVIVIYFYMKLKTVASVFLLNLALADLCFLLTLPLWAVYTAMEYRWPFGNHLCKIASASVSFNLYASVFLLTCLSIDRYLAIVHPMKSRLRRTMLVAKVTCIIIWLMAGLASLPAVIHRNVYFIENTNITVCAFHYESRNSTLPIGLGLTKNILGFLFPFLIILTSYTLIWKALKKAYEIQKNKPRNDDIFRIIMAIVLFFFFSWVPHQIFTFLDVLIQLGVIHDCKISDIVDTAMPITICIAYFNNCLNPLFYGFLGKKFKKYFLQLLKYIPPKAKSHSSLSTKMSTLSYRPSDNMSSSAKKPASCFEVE
Experimental: The target compounds were evaluated for AT1 receptor binding affinity by displacement of [^125I]-Ang II from the AT1 receptor in rat liver membranes. The radio-iodinated AT2 receptor selective ligand [^125I]-CGP42112 was used to study AT2 receptor binding affinity in HEK-293 cells (HEK293-hAT2R) ([Dudley et al., 1990]; [Whitebread et al., 1991]). All of above methods were widely accepted and used to evaluate the binding activity of AT1 and AT2 receptors.
Rat liver membranes were prepared according to the method of Dudley et al ([Dudley et al., 1990]). After HEK-293 cells were transfected with the AT2 receptor, a lysis buffer was used to separate the cell membrane of HEK-293 cells ([Grieger et al., 2016]), using 27-G Resuspend. The lysis solution was mixed and centrifuged at 12,000 g for 10 min at 4°C. Details are shown in the Supplementary Material.
3. Radioligand binding assay steps
3.1 Rat Liver Membrane AT1 Receptor Binding Assay.
Rat liver membranes were prepared according to the method of Dudley et al[1].
Binding of [125I]-Ang II to membranes was conducted in a final volume of 0.5 mL containing 50 mM Tris-HCl (pH 7.4), 100 mM NaCl, 10 mM MgCl2, 1 mM EDTA, 0.025% bacitracin, 0.2% BSA (bovine serum albumin), liver homogenate corresponding to 5 mg of the original tissue weight, [125I]-Ang II (80000-85 000 cpm, 0.03 nM), and variable concentrations of test substance. Samples were incubated at 25 ℃ for 2 h, and binding was terminated by filtration through Whatman GF/B glass-fiber filter sheets, which had been presoaked overnight with 0.3 % polyethylamine, using a Brandel cell harvester. The filterswere washed with 3×3 mL of Tris-HCl (pH 7.4) and transferred to tubes. The radioactivity was measured in a γ-counter. The characteristics of the Ang II binding AT1receptor was determined by using six different concentrations (0.03-5 nmol/L) of the labeled [125I]-Ang II.
Nonspecific binding was determined in the presence of 1 µM Ang II.The specific binding was determined by subtracting the nonspecific binding from the total bound [125I]-Ang II.The apparent dissociation constant Ki values were calculated from IC50 values using the Cheng-Prusoff equation. […]
(§1) one-site fit.All determinations were performed in triplicate. […]

AT2 receptor [1] = target: T2, AT2 receptor (Homo sapiens, UniProt P50052); assay: HEK-293 cell AT2 receptor binding assay ([125I]-CGP42112 displacement, HEK293-hAT2R)
T2 construct: expressed in transfected cells; host or cells: HEK-293
T2 sequence (P50052 1-363): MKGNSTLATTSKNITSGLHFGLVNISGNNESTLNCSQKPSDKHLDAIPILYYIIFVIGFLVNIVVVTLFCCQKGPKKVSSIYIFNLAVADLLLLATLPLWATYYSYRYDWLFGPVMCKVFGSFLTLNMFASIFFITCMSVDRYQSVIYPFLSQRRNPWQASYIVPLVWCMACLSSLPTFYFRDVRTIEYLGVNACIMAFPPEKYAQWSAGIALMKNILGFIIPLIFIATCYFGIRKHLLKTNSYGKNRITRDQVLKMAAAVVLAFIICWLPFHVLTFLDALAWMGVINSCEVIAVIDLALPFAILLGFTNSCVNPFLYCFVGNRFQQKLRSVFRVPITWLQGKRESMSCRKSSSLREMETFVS
Experimental: All of above methods were widely accepted and used to evaluate the binding activity of AT1 and AT2 receptors.
The lysis solution was mixed and centrifuged at 12,000 g for 10 min at 4°C. Details are shown in the Supplementary Material.
After HEK-293 cells were transfected with AT2 receptor, lysis buffer (150 mM NaCl, 0.1% Triton X-100, 50 mM Tris-HCl, 1 mM EDTA, protease inhibitor) was used to separate the cell membrane of HEK-293 cells[2],using 27-G Resuspend and mix the lysis solution, and centrifuge at 12,000 g for 10 minutes at 4 °C. The supernatant was collected and centrifuged for a further 60 minutes. The precipitated membrane extracts were buffered (150 mM NaCl, 10 mM MgCl2, 0.5 % SDS, 1 % Triton X-100, 50 mM Tris-Cl, 1 mM EDTA, protease inhibitor ) for resuspension. […]
mL containing 50 mM Tris-HCl (pH 7.4), 100 mM NaCl, 10 mM MgCl2, 1 mM […]
cpm, 0.03 nM), and variable concentrations of test substance. Samples were incubated at 25 ℃ for 2 h, and binding was terminated by filtration through Whatman GF/B glass-fiber filter sheets, which had been presoaked overnight with 0.3 % polyethylamine, using a Brandel cell harvester. The filterswere washed with 3×3 mL of Tris-HCl (pH 7.4) and transferred to tubes. The radioactivity was measured in a γ-counter. The characteristics of the Ang II binding AT1 receptor was determined by […]
Nonspecific binding was determined in the presence of 1 µM Ang II.The specific binding was determined by subtracting the nonspecific binding from the total bound The apparent dissociation constant Ki values were calculated from IC50 values using the Cheng-Prusoff equation. […]
as §1

AT2 receptor [2] = assay: Neurite outgrowth assay with NG108-15 cells (AT2 receptor function assay); conditions: for Function (AT2 receptor agonist / antagonist): 3-day treatment, 10 or 100 nM, with or without PD-123,319 (10 uM) or Ang II
Experimental: The ratio of cell neurite outgrowth was used to evaluate, and the details are shown in the Supplementary Material.
NG108-15 cells (China Center for Type Culture Collection CCTCC) were used to study the in vitro morphological effects. In their undifferentiated state, neuroblastoma × glioma hybrid NG108-15 cells havea rounded shape and divide actively. The cells were cultured from passage 18–25 in Dulbecco’s modified Eagle’s medium (DMEM, Gibco BRL, Thermo Fisher Technology (China) Co., Ltd, China) with 10% fetal bovine serum (FBS, Gibco), HAT supplement and 50 mg L^−1 gentamycin at 37°C in 75 cm^2 Nunclon Delta flasks in a humidified atmosphere of 95% air and 5% CO2, as previously described ([Buisson et al., 1992]). Subcultures were performed at subconfluency. Under these conditions, cells express mainly the AT2 receptor subtype ([Whitebread et al., 1991]). Cells were treated during 3 days, once a day (first treatment 24 h after plating), and micrographs were taken on the fourth day. The details of experimental grouping and administration method are shown in the Supplementary Material. […]
4. NG108-15 cell experiment steps […]
peptidic AT2 receptor agonist CGP-42112A induces neurite outgrowth. The […]
plated as described in the Experimental Section, and adequate test concentrations for […]
each compound were determined by testing a dilution series of each compound […]
ranging from 1 pM to 1 uM.
The chemicals used in the present study were obtained from the following sources: Dulbecco’s modified Eagle’s medium (DMEM), heat-inactivated fetal bovine serum (FBS), HAT supplement (hypoxanthine, aminopterin, thymidine), gentamycin from Gibco BRL (Burlington, Ontario, Canada), and Ang II from MedChemExpress

AT2R = conditions: Figure 5, tetrahydroisoquinoline antagonists, ref Smith et al., 2013, Rice et al., 2014, Smith and Muralidharan, 2015, 2016; cited from earlier work

Structure (SMILES): CCCCc1ccc(S(=O)(=O)NC(=O)OC(C)C)c(-c2cccc(Cn3cncn3)c2)c1 [8h, Isopropyl((3'-((1H-1,2,4-triazol-1-yl)methyl)-5-butyl-[1,1′-biphenyl]-2-yl)sulfonyl)carbamate]
- Ki (AT1 receptor): 1505 ± 1.11 nM
- Ki (AT2 receptor [1]): 82.9 ± 1.19 nM
- Function (AT2 receptor agonist / antagonist) (AT2 receptor [2]): antagonistic activity; also recorded: antagonist activity
- evidence of cell death (AT2 receptor [2]; dilution series 1 pM to 1 uM, seen only at the highest concentration): evidence of cell death

Structure (SMILES): CCCCOc1ccc(S(=O)(=O)NC(=O)CCCC)c(-c2cccc(Cn3cncn3)c2)c1 [8i, N-((3'-((1H-1,2,4-triazol-1-yl)methyl)-5-butoxy-[1,1′-biphenyl]-2-yl)sulfonyl)pentanamide]
- Ki (AT1 receptor): 1250 ± 1.12 nM
- Ki (AT2 receptor [1]): 199.6 ± 1.17 nM
- Function (AT2 receptor agonist / antagonist) (AT2 receptor [2]): antagonistic activity; also recorded: AT2R antagonist; also recorded: antagonist activity

Structure (SMILES): CCCCOC(=O)NS(=O)(=O)c1ccc(OCCCC)cc1-c1cccc(Cn2cncn2)c1 [8j, Butyl((3'-((1H-1,2,4-triazol-1-yl)methyl)-5-butoxy-[1,1′-biphenyl]-2-yl)sulfonyl)carbamate]
- Ki (AT1 receptor): 889.3 ± 1.24 nM
- Ki (AT2 receptor [1]): 620.1 ± 1.27 nM
- Function (AT2 receptor agonist / antagonist) (AT2 receptor [2]): agonistic activity; also recorded: agonist activity; also recorded: AT2R agonist

Structure (SMILES): CCCCOc1ccc(S(=O)(=O)NC(=O)OCC(C)C)c(-c2cccc(Cn3cncn3)c2)c1 [8k, Isobutyl((3'-((1H-1,2,4-triazol-1-yl)methyl)-5-butoxy-[1,1′-biphenyl]-2-yl)sulfonyl)carbamate]
- Ki (AT1 receptor): 775 ± 1.08 nM
- Ki (AT2 receptor [1]): 712.5 ± 1.17 nM
- Function (AT2 receptor agonist / antagonist) (AT2 receptor [2]): antagonistic activity; also recorded: AT2R antagonist; also recorded: antagonist activity

Structure (SMILES): CCCCOc1ccc(S(=O)(=O)NC(=O)OC(C)C)c(-c2cccc(Cn3cncn3)c2)c1 [8l, Isopropyl((3'-((1H-1,2,4-triazol-1-yl)methyl)-5-butoxy-[1,1′-biphenyl]-2-yl)sulfonyl)carbamate]
- Ki (AT1 receptor): 2005 ± 1.16 nM
- Ki (AT2 receptor [1]): 56.6 ± 1.16 nM
- Function (AT2 receptor agonist / antagonist) (AT2 receptor [2]): antagonistic activity; also recorded: AT2R antagonist; also recorded: antagonist activity

Structure (SMILES): CCCCc1ccc(S(=O)(=O)NC(=O)OC(C)C)c(-c2cccc(Cn3cccn3)c2)c1 [9h, Isopropyl((3'-((1H-pyrazol-1-yl)methyl)-5-butyl-[1,1′-biphenyl]-2-yl)sulfonyl)carbamate]
- Ki (AT1 receptor): 1723 ± 1.07 nM
- Ki (AT2 receptor [1]): 138 ± 1.34 nM
- Function (AT2 receptor agonist / antagonist) (AT2 receptor [2]): antagonistic activity; also recorded: Antagonist

Structure (SMILES): COc1ccc(Cn2cnc3c2C[C@@H](C(=O)O)N(C(=O)C(c2ccccc2)c2ccccc2)C3)cc1C [EMA300]
- Ki (AT2R): 28 nM

— article PMC9458978, “Design, synthesis and biological evaluation of novel biphenylsulfonamide derivatives as selective AT2 receptor antagonists” (Frontiers in Chemistry, 2022)
